Source: patent publication US8088818B2, “Catechol-based derivatives for treating or preventing diabetics” (National Taiwan University, priority 2006, dated 2012)

Experiments:
rats = experiment: Intravenous glucose tolerance test (IGTT); format: in vivo, rat; settings: oral 0.5 mg/ml/kg; 1000 mg/kg glucose intravenous, 30 minutes
Type 2 diabetic rats = experiment: Blood sugar lowering in insulin-induced type 2 diabetic rats after oral administration; format: in vivo, rat
Procedure: (c) Insulin-induced type 2 diabetic rats: the abdominal cavity of the male Wistar rats of 12 weeks age are injected with 0.5 IU/kg long-term insulin (MonotardR HM) three times a day for fourteen days. Then, the 10 mg/kg tolbutamide, an anti-diabetic drug of sulfonylurea class, is injected into the abdominal cavity. Phlebotomize 0.1 ml blood respectively at the preadministration and the postadministration of sixty minutes, and calculate the reduced value of the blood sugar. If the variation of the ability of lowering blood sugar is less than 10%, which is deemed as the type II (insulin resistance) diabetes rat.
(d) The administration: Dissolve the medicine equivalently in deionized water, and then administrate the mentioned solution into the normal and diabetic rats by an orally perfusion. Keep with the desired concentration of the perfusion amount by taking suitable amount of the medicine solution according to the weight of the different animal.
The rats to be experimented should undergo a starvation for 8-12 hours overnight. Next day, the rats are anesthetized with 30 mg/kg pentobarbital by injecting into the abdominal cavity. After the rats fall asleep, fix the rats on the board with the rubber band. Open the groin, find the veins, bleed 0.1 ml blood from an empty stomach, and then feed the medicine into the body of the rats by taking orally. After 90 minutes, bleed and perform a centrifugation (13,000 rpm, 5 minutes) to separate the serum and the plasma. Take the 10 μl supernatant of the serum and add 1 ml reagent of the glucose kit thereinto by gently mixing. React for 5 minutes at 37 °C, followed by detecting the value of the blood sugar by means of BST330 based on the different absorption level. […] The value of the blood sugar (mg/dL) is calculated by comparing the level of redness with contrasting the standard curve.
(The value of blood sugar at postadministration)−(The value of blood sugar at preadministration)/(The value of blood sugar at preadministration)×100%

coronary artery = experiment: Flow rate of the coronary artery in the isolated perfused rat heart (Langendorff); settings: for coronary flow: isolated Wistar rat heart
Procedure: Each of the male Wistar rats weighs about 200-250 grams, and is anesthetized with 25 mg/kg pentobarbital and 16 mg/kg heparin by injecting into the abdominal cavity. After falling asleep, separate the cervical vertebra and immediately take the heart out hanging on the constant pouring pressure circulation instrument (Langendorff, AD Instruments Pty Ltd, ML870B2) and fill a 37[…] pouring solution of 95% of oxygen and 5% of carbon dioxide with the artery (119.7 mM NaCl, 23.8 mM NaHCO3, 5.6 mM glucose, 1.2 mM CaCl2, 1.1 mM MgCl2, 0.3 mM NaH2PO4, and 5.0 mM KCl), which washes the heart and clean out the blood water by pouring in a reverse direction. The rate of the reverse pouring is 10 ml/min, followed by maintaining the pouring pressure of the coronary artery at 80 mmHg. After balancing for thirty minutes, measure the rate of the pouring solution flowing in the heart, and observe the change of the rate the pouring solution flowing in the heart while the testing drug is added.

Insulin = Insulin concentration before and after oral administration; format: in vivo, rat
Description: However, it is also observed that the dominant effect for reducing the blood sugar on the type I diabetic rats, which are incapable of secreting insulin.

`O=C(/C=C/c1ccc(O)c(O)c1)NCCc1ccccc1` [370G (45)] was tested, and the “glucose availability in IGTT versus control” value (rats) was “raised”, the “% decrease in plasma glucose” value (Type 2 diabetic rats; type 2 diabetic rats, 0.05 mg/kg oral, 90 min) was 7.4 ± 2.6% and the “% decrease in plasma glucose” value (Type 2 diabetic rats; type 2 diabetic rats, 0.1 mg/kg oral, 90 min) was 17.2 ± 2.6 %. For the same compound, the “% decrease in plasma glucose” value (Type 2 diabetic rats; type 2 diabetic rats, 0.5 mg/kg oral, 90 min) was 20.1 ± 3.4 %, the “% decrease in plasma glucose” value (Type 2 diabetic rats; type 2 diabetic rats, 1.0 mg/kg oral, 90 min) was 23.3 ± 3.3 % and the “% decrease in plasma glucose” value (Type 2 diabetic rats; type II diabetic rats, 0.5 mg/kg, p.o., 90 minutes) was 20.0 ± 7.7%. For the same compound, the “reducing the blood sugar (in words)” value (Type 2 diabetic rats; type II diabetics rats, oral 0.05 to 1.0 mg/kg) was “phenomenon of reducing the blood sugar are shown”, the “effect on coronary flow rate (in words)” value (coronary artery; Wistar rats, Tables 15 and 16) was “capable of increasing the coronary flow rate” and the coronary flow (coronary artery; conc. 0 (baseline)) was 11.8 ± 1.0 mL/min. It also gave a coronary flow (coronary artery; conc. 0.1 (unit printed .[…]M)) of 12.4 ± 1.1 mL/min, a coronary flow (coronary artery; conc. 0.3 (unit printed .[…]M)) of 13.2 ± 1.4 mL/min and a coronary flow (coronary artery; conc. 1 (unit printed .[…]M)) of 15.6 ± 1.2 mL/min. For the same compound, the coronary flow (coronary artery; conc. 3 (unit printed .[…]M)) was 17.4 ± 1.3 mL/min, the coronary flow (coronary artery; conc. 10 (unit printed .[…]M)) was 19.5 ± 0.7 mL/min and the “Insulin, Post-treatment (30 min)” value (Insulin; 1 mg/kg, p.o., post-treatment (30 min)) was 14.9 ± 3.4 μIU/ml. The “Insulin, Pre-treatment” value (Insulin; 1 mg/kg, p.o., pre-treatment (baseline)) was 7.7 ± 1.0 μIU/ml and the “secretion of insulin (in words)” value (Insulin; oral 1.0 mg/kg, in 60 minutes) was “increased”.
